# Measured values: US6391870B2, “Pyrrolo [2,1-b][1,3]benzothiazepines with atypical antipsychotic activity” (Sigma-Tau Industrie Farmaceutiche Riunite S.p.A., priority 1998, dated 2002)
# Where two headings read alike, the source gives them in different places.
# Assays:
# muscarinic receptors = type: binding; details: rat cortex, [3H]QNB; average of three determinations
# catalepsy in rats = details: male, Wistar, rat, in vivo, sc
# [1] = tested on: 5-MeO-DMT-induced head twitches in mouse; assay: Antagonism of 5-MeO-DMT-induced head twitches in mouse; type: in vivo; details: s.c., 30 min before 5-MeO-DMT 10 mg/Kg s.c.
# DA-2 receptors = molecular target: T1, DA-2 receptors (Rattus norvegicus, UniProt P61169); assay: [3H]Spiperone binding to DA-2 receptors (rat striatum); details: stereoselectivity between enantiomers
# T1 construct: striatum for DA-1 and DA-2 receptors; from tissue; host or cells: rat striatum membranes
# T1 sequence (P61169 whole entry): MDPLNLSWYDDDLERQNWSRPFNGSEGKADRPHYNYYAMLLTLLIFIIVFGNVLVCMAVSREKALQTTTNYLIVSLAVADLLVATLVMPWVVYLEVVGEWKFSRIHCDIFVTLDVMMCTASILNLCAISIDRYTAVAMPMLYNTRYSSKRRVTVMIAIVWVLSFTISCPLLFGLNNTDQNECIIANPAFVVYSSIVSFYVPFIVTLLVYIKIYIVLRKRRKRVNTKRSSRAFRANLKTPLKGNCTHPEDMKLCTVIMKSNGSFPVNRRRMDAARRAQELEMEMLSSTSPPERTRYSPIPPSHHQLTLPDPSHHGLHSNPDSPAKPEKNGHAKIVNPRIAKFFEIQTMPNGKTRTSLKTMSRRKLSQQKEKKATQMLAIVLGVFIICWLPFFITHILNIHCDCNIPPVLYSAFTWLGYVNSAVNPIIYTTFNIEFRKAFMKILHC
# DA-3 receptors = molecular target: T2, DA-3 receptors (Rattus norvegicus, UniProt P19020); assay: [3H]-7-OH-DPAT binding to DA-3 receptors (rat olfactory tubercle); details: for Ki: [3H]-7-OH-DPAT, average ± standard error
# T2 construct: olfactory tubercle for DA-3 receptors; from tissue; host or cells: rat olfactory tubercle membranes
# T2 sequence (P19020 whole entry): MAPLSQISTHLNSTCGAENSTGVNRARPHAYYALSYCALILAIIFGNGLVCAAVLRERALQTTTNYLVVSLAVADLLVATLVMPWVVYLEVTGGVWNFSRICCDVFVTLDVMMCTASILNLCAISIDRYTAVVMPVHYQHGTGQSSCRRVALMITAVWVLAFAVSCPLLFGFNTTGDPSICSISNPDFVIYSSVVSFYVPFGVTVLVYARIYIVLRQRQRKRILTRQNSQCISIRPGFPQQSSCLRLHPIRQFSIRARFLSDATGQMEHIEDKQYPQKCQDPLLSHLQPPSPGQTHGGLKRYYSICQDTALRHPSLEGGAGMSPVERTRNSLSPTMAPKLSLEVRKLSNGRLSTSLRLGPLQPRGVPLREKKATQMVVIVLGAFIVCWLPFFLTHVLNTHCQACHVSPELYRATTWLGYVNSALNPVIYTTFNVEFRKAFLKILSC
# DA-1 receptors = molecular target: T3, DA-1 receptors (Rattus norvegicus, UniProt P18901); assay: [3H]SCH 23390 binding to DA-1 receptors (rat striatum); details: for Ki: [3H]SCH 23390, average ± standard error, read-out: D1 affinity Ki
# T3 construct: striatum for DA-1 and DA-2 receptors; from tissue; host or cells: rat striatum membranes
# T3 sequence (P18901 whole entry): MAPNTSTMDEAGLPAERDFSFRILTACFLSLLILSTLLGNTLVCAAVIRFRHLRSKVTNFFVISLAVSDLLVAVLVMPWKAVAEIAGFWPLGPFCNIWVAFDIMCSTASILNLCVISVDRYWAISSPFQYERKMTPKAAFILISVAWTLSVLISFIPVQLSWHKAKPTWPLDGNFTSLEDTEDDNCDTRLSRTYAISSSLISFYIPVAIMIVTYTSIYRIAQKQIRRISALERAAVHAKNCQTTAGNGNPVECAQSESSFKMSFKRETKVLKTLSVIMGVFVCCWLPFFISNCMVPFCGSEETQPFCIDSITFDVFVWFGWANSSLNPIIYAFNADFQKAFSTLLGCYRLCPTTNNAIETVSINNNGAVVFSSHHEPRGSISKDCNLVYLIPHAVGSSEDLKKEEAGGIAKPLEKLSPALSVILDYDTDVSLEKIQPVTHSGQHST
SMILES,Ki (muscarinic receptors) [nM],Time in minutes of insurgence of catalepsy in 100% of the animals (catalepsy in rats) [min],Dosage that determines 50% of the Head-twitching inhibition induced by 5-MeO-DMT [1] [mg/kg],Times less affinity for the D2 receptor than the opposite enantiomer (DA-2 receptors),D3 pKi (DA-3 receptors),Ki (DA-3 receptors; read-out: D3 affinity Ki) [nM],D1 pKi (DA-1 receptors),Ki (DA-1 receptors) [nM],Ki (DA-3 receptors; D3 affinity Ki) [nM]
"CN1CCN(C2Cn3cccc3Sc3ccc(Cl)cc32)CC1 (racemic) [ST1455, (±)-7-chloro-9-(4-methylpiperazin-1-yl)-9,10-dihydropyrrolo[2,1-b][1,3]benzothiazepine]",418,,,,,,,,
"CN1CCN(C2Cn3cccc3Sc3ccc(F)cc32)CC1 (racemic) [ST1456, (±)-7-fluoro-9-(4-methylpiperazin-1-yl)-9,10-dihydropyrrolo[2,1-b][1,3]benzothiazepine]",2220,,,,,,,,
"CN1CCN(C2Cn3cccc3Sc3ccc(Cl)cc32)CC1 (single isomer, unassigned) [ST1461]",514,,,,,,,,
"CN1CCN(C2Cn3cccc3Sc3ccc(Cl)cc32)CC1 (single isomer, unassigned; (+)) [ST1460, (+)-7-chloro-9-(4-methylpiperazin-1-yl)-9,10-dihydropyrrolo[2,1-b][1,3]benzothiazepine]",286,,,,,,,,
CN1CCN([C@@H]2Cc3ccccc3Sc3ccc(Cl)cc32)CC1 [R-(−)-Octoclothepin],155,120,0.089,approximately 10 times,7.68,20.9,8.69,2.02 ± 0.17,
"CN1CCN(C2Cc3ccccc3Sc3ccc(Cl)cc32)CC1 (centres unmarked) [RS-Octoclothepin, 8-chloro-10-(4-methylpiperazino)-10,11-dihydrodibenzo[b,f]thiepin]",434,120,,,8.62,2.38,8.64,2.28 ± 0.15,
CN1CCN([C@H]2Cc3ccccc3Sc3ccc(Cl)cc32)CC1 [S-(+)-Octoclothepin],749,300,,,,,8.71,1.97 ± 0.53,0.75
